Test results: patent US6468980B1, “Methods and compositions for potentiating cancer chemotherapeutic agents” (Oxycal Laboratories, Inc., priority 2000, dated 2002)

System: SK-Hep-1, a liver adenocarcinoma (hepatoma) cells
Experiment: BrdU cell proliferation ELISA, adriamycin plus ascorbate adjuvant, hepatoma cells
Format: cell-based, human
Conditions: for suppression of hepatoma proliferation, ADR plus adjuvant compared with ADR alone: adjuvant 0.5 mM AA equivalents, one application of ADR (0.003-0.3 micromolar), two applications of adjuvant, FIG. 1
From the text: Calcium ascorbate (CA), calcium threonate (CT), 4-hydroxy-5-methyl-3(2H)-furanone (FR) and Ester-C (EC) are obtained from Inter-Cal Corporation, Prescott, Ariz., USA. Tissue culture grade Ascorbic acid (AA) is from Sigma Chemical Company, St. Louis, Mo., USA. The composition of calcium ascorbate (calcium di-(L-ascorbate) dihydrate) is made by sequentially dissolving individual components in sterile water to obtain master-stock solutions of equal strength (1% w/v). Aqueous solution of calcium ascorbate plus calcium threonate plus 4-hydroxy-5-methyl-3(2H)-furanone (CA/CT/FR) is prepared at ratio of 85/7.5/7.5. For comparative analysis, stock solutions containing identical ascorbic acid (AA) equivalents are used. All master stocks are stored at room temperature during the course of these procedures. From these, 10× strength working stocks are prepared by serial dilution on the day of use and are applied to cells in microtiter plates as described below.
Adriamycin (doxorubicin) is obtained from Sigma Chemical Company (St. Louis, Mo.). Stock solutions are made by dissolving adriamycin (ADR) in sterile water and DTIC in water or dilute acetic acid solution (0.01N). Stocks are stored frozen at −10 C and thawed prior to use. Serial dilutions are made in sterile water to obtain 10× strength solutions and […] of this is applied to cells at the time of treatment.
Target human tumor-derived or normal lines consist of SK-Hep-1, a liver adenocarcinoma ([…]) and Malme-3M, a malignant melanoma. All seed cultures are obtained from ATCC, Mannassas, Va., USA and are propagated/maintained in serum-containing growth medium in a humidified incubator of 5% CO2/95% air. SH-Hep-1 cells are grown in Eagle's minimum essential medium (EMEM) in Earle's salts plus non-essential amino acids supplemented with 10% FBS plus antibiotics and Malme-3M cells are cultured in McCoy's medium supplemented with 15% fetal bovine serum (FBS) plus antibiotics.
For treatment, exponentially growing cells are seeded at a density of 1×10^4 cells per well of 96-well microtiter plate in 0.1-0.2 ml of growth medium. After overnight cell attachment at 37 C, duplicate wells are exposed to various treatments by direct application of one-tenth volume of 10× strength solution. For treatments involving chemotherapeutic agent, one-tenth volume of serial dilutions of adriamycin (0.0006-3.0 micromolar) are applied to wells followed by application of ascorbate-containing composition (adjuvant) or sterile water (control). The adjuvant treatment is repeated every other day or on the third day (as applicable) without change of growth medium. Untreated controls receive an equivalent amount of sterile water. After 2-3 treatments with adjuvant, cells are labeled with BudR as described below. (In some experiments, wells are refed an equal volume of growth medium prior to additional of BudR. This gives a higher amount of BrdU incorporation into DNA relative to no refluiding).
For DNA labeling, the following procedure are adapted and modified from the Cell Proliferation ELISA, BudR (Colorimetric) assay of Roche Diagnostics, Indianapolis, IN, USA: Each treated well is exposed to one-tenth volume of 10× BrdU-containing medium and reincubated and 37 C overnight (15-20 hrs.). One set of control wells is exposed to medium only (no BudR) to obtain an absorbance-control (substrate only) blank for the assay. After the labeling period, the culture medium is removed and the cells are fixed and DNA denatured in one step by adding FixDenat (30 min at RT). Then, FixDenat is removed, the anti-BrdU-peroxidase reagent is added and incubation continues for 90 min at RT. After removal of the latter, the plate is washed 3 times, followed by addition of substrate solution. The plate is kept at RT until color development became sufficient for photometric detection (5-10 min). […]

| Molecule | suppression of hepatoma proliferation, ADR plus adjuvant compared with ADR alone | suppression of hepatoma proliferation, ADR plus adjuvant compared with ADR alone (listed as Ascorbic Acid (AA)) | suppression of hepatoma proliferation, ADR plus adjuvant compared with ADR alone (dihydrate) | suppression of hepatoma proliferation, ADR plus adjuvant compared with ADR alone (listed as Calcium Ascorbate (CA), dihydrate) | suppression of hepatoma proliferation, ADR plus adjuvant compared with ADR alone (listed as Calcium ascorbate, dihydrate) | effect of adjuvant on anti-proliferation activity of low doses of ADR in hepatoma cells (adjuvant at 0.033%, FIG. 4) |
| --- | --- | --- | --- | --- | --- | --- |
| O=C1O[C@H]([C@@H](O)CO)C(O)=C1O [AA, Ascorbic acid, reference compound] | greater suppression of hepatoma proliferation than ADR alone | greater suppression of hepatoma proliferation than doxorubicin alone |  |  |  |  |
| calcium di-(L-ascorbate) dihydrate |  |  | greater suppression of hepatoma proliferation than ADR alone | greater suppression of hepatoma proliferation than doxorubicin alone | more effective than ascorbic acid | consistently improve the anti-proliferation activity of low doses of ADR |
